Source: patent EP0752477A2, “Expression vectors that produce steroid receptors, steroid receptor chimera, screening assays for steroid receptors and clinical assays using synthesized receptors and receptor vectors” (BAYLOR COLLEGE OF MEDICINE, priority 1990, dated 1991)
pEC50: −log10 of the molar value.

Assays:
[1] = biological target: T1, chicken progesterone receptor (Gallus gallus, UniProt P07812); assay: β-Galactosidase transcription assay in yeast with expression plasmid and reporter YRpP1; type: cell-based
T1 construct: ubiquitin (N, cleaved yes); expressed in transfected cells
T1 sequence (P07812 1-786): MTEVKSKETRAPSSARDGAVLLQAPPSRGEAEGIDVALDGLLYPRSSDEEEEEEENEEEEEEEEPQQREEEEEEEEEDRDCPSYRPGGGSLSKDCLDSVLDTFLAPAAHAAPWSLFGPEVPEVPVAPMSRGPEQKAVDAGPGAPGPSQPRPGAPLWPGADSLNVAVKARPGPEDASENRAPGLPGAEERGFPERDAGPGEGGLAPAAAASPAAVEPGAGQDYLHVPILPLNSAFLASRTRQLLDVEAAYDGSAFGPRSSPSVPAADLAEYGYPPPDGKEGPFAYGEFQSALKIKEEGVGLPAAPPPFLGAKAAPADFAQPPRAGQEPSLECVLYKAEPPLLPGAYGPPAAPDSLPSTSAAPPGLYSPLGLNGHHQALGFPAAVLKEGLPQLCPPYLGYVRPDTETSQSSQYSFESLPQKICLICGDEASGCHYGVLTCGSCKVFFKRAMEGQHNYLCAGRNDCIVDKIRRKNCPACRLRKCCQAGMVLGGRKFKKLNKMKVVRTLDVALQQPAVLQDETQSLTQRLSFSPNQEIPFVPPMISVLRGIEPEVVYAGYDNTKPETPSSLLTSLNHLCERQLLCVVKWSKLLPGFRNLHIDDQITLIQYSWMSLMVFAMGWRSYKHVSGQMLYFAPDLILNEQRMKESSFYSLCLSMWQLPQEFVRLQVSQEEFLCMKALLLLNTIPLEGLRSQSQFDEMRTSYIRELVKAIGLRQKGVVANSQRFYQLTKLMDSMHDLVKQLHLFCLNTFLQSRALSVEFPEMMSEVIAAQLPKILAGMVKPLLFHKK
Experimental: A reporter YRpP1 containing the progesterone responsive sequence and the β-Galactosidase gene was used to quantitate the transcriptional activity of the chicken progesterone receptor. Yeast containing both the expression and the reporter plasmids was grown overnight in minimal media supplemented with 2% glucose. […] Four sets of tubes were inoculated (a) no additions, (b) +100µM CuSO4, (c) +0.1µM progesterone, and (d) +100µM CuSO4, 0.1µM progesterone. When the cells reached mid-log phase they were harvested by centrifugation. The cells were lysed using glass beads and the cytosol was clarified by centrifugation. Aliquots (1-100µg) of protein were assayed for β-Galactosidase activity according to the method of Miller and expressed as units/mg protein.

human estrogen receptor = assay: Estrogen responsive reporter assay in yeast, wild type estrogen receptor; type: cell-based; settings: ER
Description: (§1) The mechanism by which steroid receptors enhance transcription is unclear, however, there is a clear correlation between the ability of the receptor to activate transcription and the presence of an acidic activation region in the protein. […] As illustrated in Fig. 9 this was accomplished for the human estrogen receptor by digestion of the yeast expression vector for estrogen, YEpE2 with Notl, filling in the ends with T4 polymerase and religating in the presence of the filled in Rsal - Sall fragment of the VP16 protein. After the receptor is inserted in the proper orientation it produces a chimeric receptor which includes within its reading frame a VP16 activating domain.
(§2) A comparison of the wild type estrogen receptor and the modified receptor was made in yeast using the estrogen responsive reporters.

Super ER = assay: Estrogen responsive reporter assay in yeast, modified (super) estrogen receptor with VP16 activating domain; type: cell-based, human; settings: +CuSO4, no E2
Description: as §1, §2

YRpEG3 reporter = assay: Activity of the YRpEG3 reporter alone (no receptor); type: cell-based, Saccharomyces cerevisiae
Experimental: The transcriptional activity of the receptor was assayed under similar conditions to Example 15 except that the cells were grown in glucose (Fig. 1B). In the presence of glucose, the transcriptional activity of GAL4 is completely repressed because the GAL4 protein is incapable of binding to its response element. Under these conditions estrogen receptor activation of the GAL4-ERE can be monitored without interference. […] At all concentrations of receptor the activation of transcription was entirely hormone dependent.

GAL4 = assay: Activation of GAL4/ERE binding site chimera reporters by galactose in BJ3505; type: cell-based, Saccharomyces cerevisiae; settings: grown in galactose
Description: It is known that the estrogen receptor binds to and activates gene transcription through a 13 bp palindromic sequence (ERE). Placing ERE upstream of the promoter in a CYC-l-β-gal fusion vector and transforming into Saccharomyces cerevisiae results in a reporter which responded to estrogen in a receptor-dependent manner. To monitor the binding of the estrogen receptor to the ERE sequence in vivo, an interference assay was developed. An oligonucleotide containing a GAL4 (17 mer) recognition sequence and an ERE was constructed such that the two sites would overlap by 1 base. In this way only ER or GAL4 but not both molecules could occupy the same site. This sequence was cloned as a single, double, or triple copy distal to the promoter in a yeast iso-l-cytochrome C reporter (PC3).
These plasmids were introduced into yeast and assayed for transcriptional activity in the presence of glucose and galactose. The results are shown in Table I and reveal that galactose induced transcription of the reporter gene, and activity increased dramatically as the number of GAL sites increased. When grown in glucose, transcriptional activity was completely repressed.

For `O=S(=O)([O-])[O-].[Cu+2]` [CuSO4], the β-Galactosidase activity ([1]; +100µM CuSO4, no progesterone) was under 500 Miller units, the pEC50 ([1]; CUP1 promoter driven receptor expression, other data, read-out: concentration sufficient to activate half maximally this transcription unit) was 6.00 and the “activity of estrogen responsive reporter” value (human estrogen receptor; +CuSO4, no E2) was 473 Miller units per milligram of protein. The “activity of estrogen responsive reporter” value (Super ER) was 4133 Miller units per milligram of protein and the “direct effects on the activity of the YRpEG3 reporter alone” value (“direct effects on the activity” below) (YRpEG3 reporter) was “no direct effects”.
In the case of `C[C@]12CC[C@@H]3c4ccc(O)cc4CC[C@H]3[C@@H]1CC[C@@H]2O` [E2, estradiol], the “activity of estrogen responsive reporter” value (human estrogen receptor; +CuSO4+E2) was 4344 Miller units per milligram of protein, the “activity of estrogen responsive reporter” value (human estrogen receptor; +E2) was 5760 Miller units per milligram of protein and the “direct effects on the activity” value (YRpEG3 reporter) was “no direct effects”.
With `O=C[C@H](O)[C@@H](O)[C@@H](O)[C@H](O)CO` [Galactose, galactose] the “TRANSCRIPTIONAL ACTIVITY” value (GAL4; reporter YRpEG1, 1 binding site) was 860, the “TRANSCRIPTIONAL ACTIVITY” value (GAL4; reporter YRpEG2, 2 binding sites) was 2,350 and the “TRANSCRIPTIONAL ACTIVITY” value (GAL4; reporter YRpEG3, 3 binding sites) was 16,500.
In the case of `CC(=O)[C@H]1CC[C@H]2[C@@H]3CCC4=CC(=O)CC[C@]4(C)[C@H]3CC[C@]12C` [Prog., progesterone, reference compound], the β-Galactosidase activity ([1]; +0.1µM progesterone, no CuSO4) was under 500 Miller units and the β-Galactosidase activity ([1]; +100µM CuSO4, 0.1µM progesterone) was 50,000 Miller units.
For `COc1ccc2c(c1)CCC(c1ccccc1)=C2c1ccc(OCCN2CCCC2)cc1` [nafoxidine], the “direct effects on the activity” value (YRpEG3 reporter) was “no direct effects”.
